Values after ≈ are worked out from the molar mass of the structure shown. Where two headings read alike, the source gives them in different places.
Key:
S. aureus ATCC 29213 [1] = assay: MIC by broth microdilution, S. aureus ATCC 29213; type: cell-based; conditions: for MIC, Antibiotic +NH2-triguan-6C / MIC, Antibiotic +NO2-triamine-2C / MIC, Antibiotic +NO2-triamine-6C: non-covalent mixture
Description: (§1) Methods—Determination of MICs: MICs for S. aureus, E. faecium, E. coli, P aeruginosa, A. baumannii, K. pneumoniae were determined using broth microdilution in accordance with CLSI methods (Wiegand, I.; Hilpert, K.; Hancock, R. E. W. Agar and Broth Dilution Methods to Determine the Minimal Inhibitory Concentration (MIC) of Antimicrobial Substances. Nat. Protoc. 2008, 3, 163-175). One day prior to each MIC experiment, bacterial strains were streaked for single colonies on TSA plates from frozen glycerol stocks stored at −80° C. Three to five colonies from each plate were harvested with a disposable inoculating loop and resuspended in 500 μL of PBS to create a bacterial suspension. Alternatively, a single colony of the appropriate bacterial strain was added to 4 mL TSB for overnight growth at 37° C. with 200 rpm shaking to create a stationary phase bacterial suspension. The suspension was diluted in PBS to an OD600 of 0.1 (˜[…] CFU/ml), and the OD 0.1 suspension was diluted 1:100 in Mueller Hinton broth (MHB, Difco 257530) just prior to inoculating the 96-well polypropylene treatment plate (Costar 3879). A 50 μL portion of inoculum was added to a treatment plate containing 2-fold serial dilutions of compound in MHB (50 μL of treatment/well) to lend a final total volume of 100 μL/well and a final inoculum density of ˜5×10^5 CFU/ml. The completed assay plate was sealed with Parafilm, placed in a lidded plastic tray lined with moistened paper towels, and incubated at 37° C. for approximately 20 hours. The MIC was read as the lowest treatment concentration where no bacterial growth occurred, as determined by OD600 measurements on a microplate reader. If a different plate or media type was used for a particular test, this is noted below the respective table.

S. aureus ATCC 29213 [2] = conditions: cited from earlier work
K. pneumoniae BAA-2146 = assay: MIC by broth microdilution, K. pneumoniae BAA-2146; type: cell-based; conditions: Klebsiella pneumoniae, BAA2146
Description: as §1, with “A 50 μL portion of inoculum was added to a treatment plate containing 2-fold serial dilutions of compound in MHB (50 μL of treatment/well) to lend a final total volume of 100 μL/well and a final inoculum density of ˜5×10^5 CFU/ml. The completed assay plate was sealed with Parafilm, placed in a lidded plastic tray lined with moistened paper towels, and incubated at 37° C. for approximately 20 hours.” left out, “If a different plate or media type was used for a particular test, this is noted below the respective table.” left out

E. coli BW25113 = assay: MIC by broth microdilution, E. coli BW25113; type: cell-based; conditions: Escherichia coli
Description: as §1, with “A 50 μL portion of inoculum was added to a treatment plate containing 2-fold serial dilutions of compound in MHB (50 μL of treatment/well) to lend a final total volume of 100 μL/well and a final inoculum density of ˜5×10^5 CFU/ml. The completed assay plate was sealed with Parafilm, placed in a lidded plastic tray lined with moistened paper towels, and incubated at 37° C. for approximately 20 hours.” left out, “If a different plate or media type was used for a particular test, this is noted below the respective table.” left out

M. smegmatis = assay: MIC, resazurin readout, M. smegmatis; type: cell-based; conditions: Mycolicibacterium smegmatis
Description: (§2) MICs for C. glutamicum and the mycobacteria, M. smegmatis and M. abscessus, were determined as follows. A suspension of stationary phase culture was adjusted with PBS to approximately 10^8 CFU/mL and diluted 1:100 in nutrient media just prior to inoculating 96-well polystyrene treatment plates (Costar 3370). Nutrient media was Mueller Hinton Broth for C. glutamicum and Middlebrook media (Middlebrook 7H9 Broth with 0.2% glycerol and 10% OADC supplement, Difco, BD) for mycobacteria. A 50 μL portion of inoculum was added to a treatment plate containing 2-fold serial dilutions of compounds in the same media (50 μL of treatment/well) to lend a final total volume of 100 μL/well and a final inoculum density of ˜5×10^5 CFU/ml. The completed assay plate was sealed with Parafilm, placed in a lidded plastic tray lined with moistened paper towels, and incubated at 37° C. for around 22 h (C. glutamicum), 42-44 h (M. smegmatis) or 46-48 hours (M. abscessus). […] The MIC was identified as the lowest treatment concentration of drug that prevented color change of resazurin from blue to pink/violet, as determined by measuring fluorescence in a black microtiter plate with excitation at 570 nm and emission at 615 nm on a Molecular Devices M5 microplate reader.

S. aureus USA400 (MRSA) = assay: MIC by broth microdilution, S. aureus USA400 (MRSA); type: cell-based; conditions: Staphylococcus aureus
Description: as §1, with “A 50 μL portion of inoculum was added to a treatment plate containing 2-fold serial dilutions of compound in MHB (50 μL of treatment/well) to lend a final total volume of 100 μL/well and a final inoculum density of ˜5×10^5 CFU/ml. The completed assay plate was sealed with Parafilm, placed in a lidded plastic tray lined with moistened paper towels, and incubated at 37° C. for approximately 20 hours.” left out, “If a different plate or media type was used for a particular test, this is noted below the respective table.” left out

[3] = tested on: S. aureus USA400 (MRSA), MW2; assay: Minimum Bacterial Eradication Concentration (MBEC) assay; type: cell-based
E. coli UTI89 = assay: MIC by broth microdilution, E. coli UTI89; type: cell-based; conditions: Escherichia coli
Description: as §1, with “A 50 μL portion of inoculum was added to a treatment plate containing 2-fold serial dilutions of compound in MHB (50 μL of treatment/well) to lend a final total volume of 100 μL/well and a final inoculum density of ˜5×10^5 CFU/ml. The completed assay plate was sealed with Parafilm, placed in a lidded plastic tray lined with moistened paper towels, and incubated at 37° C. for approximately 20 hours.” left out, “If a different plate or media type was used for a particular test, this is noted below the respective table.” left out

E. coli 25922 = assay: Time-kill kinetics against E. coli 25922 (FIG. 2); type: cell-based
E. coli BW25113ΔtolC = assay: MIC by broth microdilution, E. coli BW25113ΔtolC; type: cell-based; conditions: Escherichia coli
Description: as §1, with “A 50 μL portion of inoculum was added to a treatment plate containing 2-fold serial dilutions of compound in MHB (50 μL of treatment/well) to lend a final total volume of 100 μL/well and a final inoculum density of ˜5×10^5 CFU/ml. The completed assay plate was sealed with Parafilm, placed in a lidded plastic tray lined with moistened paper towels, and incubated at 37° C. for approximately 20 hours.” left out, “If a different plate or media type was used for a particular test, this is noted below the respective table.” left out

M. abscessus = assay: MIC, resazurin readout, M. abscessus; type: cell-based; conditions: Mycobacteroides abscessus
Description: as §2

C. glutamicum = assay: MIC, resazurin readout, C. glutamicum; type: cell-based; conditions: Corynebacterium glutamicum
Description: as §2

E. coli ATCC 25922 = assay: MIC by broth microdilution, E. coli ATCC 25922; type: cell-based; conditions: Escherichia coli, ATCC25922
Description: as §1

A. baumannii ATCC 19606 = assay: MIC by broth microdilution, A. baumannii ATCC 19606; type: cell-based; conditions: Acinetobacter baumannii, ATCC19606
Description: as §1, with “A 50 μL portion of inoculum was added to a treatment plate containing 2-fold serial dilutions of compound in MHB (50 μL of treatment/well) to lend a final total volume of 100 μL/well and a final inoculum density of ˜5×10^5 CFU/ml. The completed assay plate was sealed with Parafilm, placed in a lidded plastic tray lined with moistened paper towels, and incubated at 37° C. for approximately 20 hours.” left out, “If a different plate or media type was used for a particular test, this is noted below the respective table.” left out

[4] = tested on: E. coli NCTC 13846 (colistin-resistant); assay: MIC by broth microdilution, E. coli NCTC 13846; type: cell-based; conditions: Escherichia coli, NCTC13846
Description: as §1, with “A 50 μL portion of inoculum was added to a treatment plate containing 2-fold serial dilutions of compound in MHB (50 μL of treatment/well) to lend a final total volume of 100 μL/well and a final inoculum density of ˜5×10^5 CFU/ml. The completed assay plate was sealed with Parafilm, placed in a lidded plastic tray lined with moistened paper towels, and incubated at 37° C. for approximately 20 hours.” left out, “If a different plate or media type was used for a particular test, this is noted below the respective table.” left out

[5] = S. aureus (ATCC 29213), Mueller Hinton Broth, polypropylene plate
[6] = Staphylococcus aureus, ATCC29213, 20 h, S. aureus (ATCC 29213), Mueller Hinton Broth, polypropylene plate, read-out: MIC, Antibiotic Alone
[7] = S. aureus (ATCC 29213), Mueller Hinton Broth, polypropylene plate, read-out: MIC, Antibiotic Alone
[8] = S. aureus (ATCC 29213), cation-adjusted MHB2, polystyrene microwell plate (Costar 3370)

## O=C1CN(/N=C/c2ccc([N+](=O)[O-])o2)C(=O)N1 [Nitrofurantoin]
S. aureus ATCC 29213 [1]; [5]
  MIC, Antibiotic +NH2-triguan-6C: 128 µM (≈ 30.5 µg/mL)
  MIC, Antibiotic +NO2-triamine-2C: 256 µM (≈ 61 µg/mL)
  MIC, Antibiotic +NO2-triamine-6C: 256 µM (≈ 61 µg/mL)
S. aureus ATCC 29213 [1]; [6]
  MIC: 128 µM (≈ 30.5 µg/mL)

## CC1(C)S[C@@H]2[C@H](NC(=O)Cc3ccccc3)C(=O)N2[C@H]1C(=O)O [Penicillin G]
S. aureus ATCC 29213 [2]
  Literature MIC: 0.084 to 5.6 µM
S. aureus ATCC 29213 [1]; [7]
  MIC: 2 µM (≈ 0.669 µg/mL)
S. aureus ATCC 29213 [1]; [5]
  MIC, Antibiotic +NH2-triguan-6C: 2 µM (≈ 0.669 µg/mL)
  MIC, Antibiotic +NO2-triamine-2C: 4 µM (≈ 1.34 µg/mL)
  MIC, Antibiotic +NO2-triamine-6C: 4 µM (≈ 1.34 µg/mL)

## CO[C@H]1/C=C/O[C@@]2(C)Oc3c(C)c(O)c4c(O)c(c(/C=N/N5CCN(C)CC5)c(O)c4c3C2=O)NC(=O)/C(C)=C\C=C\[C@H](C)[C@H](O)[C@@H](C)[C@@H](O)[C@@H](C)[C@H](OC(C)=O)[C@@H]1C [Rifampicin]
S. aureus ATCC 29213 [1]; [5]
  MIC, Antibiotic +NH2-triguan-6C: 0.016 µM (≈ 0.0132 µg/mL)
  MIC, Antibiotic +NO2-triamine-2C: 0.016 µM (≈ 0.0132 µg/mL)
  MIC, Antibiotic +NO2-triamine-6C: 0.016 µM (≈ 0.0132 µg/mL)
S. aureus ATCC 29213 [1]; [6]
  MIC: 0.016 µM (≈ 0.0132 µg/mL)

## CN(C)[C@@H]1C(O)=C(C(N)=O)C(=O)[C@@]2(O)C(O)=C3C(=O)c4c(O)cccc4[C@@](C)(O)[C@H]3C[C@@H]12 [Tetracycline]
S. aureus ATCC 29213 [1]; [8]
  MIC, Antibiotic +NH2-triguan-6C: 2 µM (≈ 0.889 µg/mL)
  MIC, Antibiotic +NO2-triamine-2C: 2 µM (≈ 0.889 µg/mL)
  MIC, Antibiotic +NO2-triamine-6C: 2 µM (≈ 0.889 µg/mL)
S. aureus ATCC 29213 [1]; Staphylococcus aureus, ATCC29213, 20 h, S. aureus (ATCC 29213), cation-adjusted MHB2, polystyrene microwell plate (Costar 3370), read-out: MIC, Antibiotic Alone
  MIC: 2 µM (≈ 0.889 µg/mL)

## CN[C@H](CC(C)C)C(=O)N[C@H]1C(=O)N[C@@H](CC(N)=O)C(=O)N[C@H]2C(=O)N[C@H]3C(=O)N[C@H](C(=O)N[C@H](C(=O)O)c4cc(O)cc(O)c4-c4cc3ccc4O)[C@H](O)c3ccc(c(Cl)c3)Oc3cc2cc(c3O[C@@H]2O[C@H](CO)[C@@H](O)[C@H](O)[C@H]2O[C@H]2C[C@](C)(N)[C@H](O)[C@H](C)O2)Oc2ccc(cc2Cl)[C@H]1O [Vancomycin]
K. pneumoniae BAA-2146
  MIC: > 256 µM
S. aureus ATCC 29213 [2]
  Literature MIC: 0.34 to 1.4 µM
S. aureus ATCC 29213 [1]; [5]
  MIC, Antibiotic +NH2-triguan-6C: 1 µM (≈ 1.45 µg/mL)
  MIC, Antibiotic +NO2-triamine-2C: 1 µM (≈ 1.45 µg/mL)
  MIC, Antibiotic +NO2-triamine-6C: 0.5 to 1 µM
S. aureus ATCC 29213 [1]; Staphylococcus aureus, ATCC29213
  MIC: 0.5 to 1 µM (≈ 0.725 to 1.45 µg/mL)
S. aureus ATCC 29213 [1]; Staphylococcus aureus, ATCC29213, 20 h, read-out: MIC, Antibiotic Alone
  MIC: 0.5 to 1 µM (≈ 0.725 to 1.45 µg/mL)
E. coli BW25113
  MIC: 128 µM (≈ 186 µg/mL)
M. smegmatis
  MIC: 8 to 16 µM (≈ 11.6 to 23.2 µg/mL)
S. aureus USA400 (MRSA)
  MIC: 1 µM (≈ 1.45 µg/mL)
[3]
  MBEC: >512 µM
E. coli UTI89
  MIC: 128 µM (≈ 186 µg/mL)
E. coli 25922
  Concentration at which effective in time-kill: 256 µM
E. coli BW25113ΔtolC
  MIC: 128 to 256 µM (≈ 186 to 371 µg/mL)
M. abscessus
  MIC: 64 µM (≈ 92.8 µg/mL)
C. glutamicum
  MIC: 0.25 µM (≈ 0.362 µg/mL)
E. coli ATCC 25922
  MIC: 128 µM (≈ 186 µg/mL)
A. baumannii ATCC 19606
  MIC: 128 µM (≈ 186 µg/mL)
[4]
  MIC: 64 to 128 µM (≈ 92.8 to 186 µg/mL)

## Gentamicin
S. aureus ATCC 29213 [2]
  Literature MIC: 0.26 to 2.1 µM
S. aureus ATCC 29213 [1]; [7]
  MIC: 0.5 µM
S. aureus ATCC 29213 [1]; [5]
  MIC, Antibiotic +NH2-triguan-6C: 0.5 µM
  MIC, Antibiotic +NO2-triamine-2C: 0.5 µM
  MIC, Antibiotic +NO2-triamine-6C: 1 µM

Source: patent publication US12653892B2, “Composition and method for new therapeutic agents including guanidinium-presenting dendrimers and branched structures” (priority 2020, dated 2026)
